These results are taken from US20100324101A1, “Use of Succinate Dehydrogenase Inhibitors for Increasing the Resistance of Plants or Parts of Plants to Abiotic Stress” (Bayer CropScience AG, priority 2009, published 2010).

Holding throughout (format): in vivo
One assay deals with barley - Hordeum vulgare. The assay can be described thus: Greenhouse drought stress test on barley after spray treatment. The settings on record: HORVS (barley), drought stress 26° C./18° C. (day/night) one week, 7 days recovery; 100 g of a.s./ha, spray 600 l/ha; damage vs untreated stressed plants. As for the experimental part: (§1) Oilseed rape, maize and barley are cultivated on sandy clay under greenhouse conditions. After 2-3 weeks, after BBCH10 to BBCH13 has been reached, the plants are each treated with bixafen at application rates of from 250 g/ha and 100 g/h. The spray volume is adjusted to 600 l/ha. The plants are then exposed to drought stress by heating the test chamber to 26° C./18° C. (day/night) or cold temperature stress brought about by cooling the test chamber to 8° C./1° C. (day/night). After one week, the test chamber is readjusted to normal temperatures and the test plants are then allowed to recover for 7 days. Evaluation of the compounds tested is carried out by comparison of the treated plants with the untreated plants, each of which was exposed to the stress factors, using the formula below: [formula] EFF: efficiency (%) SWug: damage to untreated control plants SWbg: damage to treated plants

Assay [1] has as its system oilseed rape - Brassica napus. Kind of assay: Greenhouse drought stress test on oilseed rape after spray treatment. Conditions: BRSNS (oilseed rape), drought stress 26° C./18° C. (day/night) one week, 7 days recovery; 250 g of a.s./ha, spray 600 l/ha; damage vs untreated stressed plants. As for the experimental part: as §1
Another assay has as its system maize - Zea mays. The assay can be described thus: Greenhouse cold temperature stress test on maize after spray treatment. The settings on record: cold temperature stress 8° C./1° C. (day/night) one week, 7 days recovery, spray 600 l/ha, damage vs untreated stressed plants. As to the method: as §1

Regarding `Cn1cc(C(=O)Nc2ccc(F)cc2-c2ccc(Cl)c(Cl)c2)c(C(F)F)n1` [bixafen, N-(3′,4′-dichloro-5-fluoro-1,1′-biphenyl-2-yl)-3-(difluoromethyl)-1-methyl-1H-pyrazole-4-carboxamide], the Efficiency amounted to 22% in the assay on barley - Hordeum vulgare, 15% in assay [1], 21% in the assay with maize - Zea mays (100 g of a.s./ha) and 47% in the assay with maize - Zea mays (250 g of a.s./ha).
